Experimental findings from patent publication US20240325544A1, “CATIONIC LIPID FOR COVALENT MODIFICATION OF PEPTIDES” (PharmalN Corporation, priority 2023, published 2024) are described below.

Bridge positions count the residues as written; N and C are the ends. Square brackets hold non-standard residues; d marks the D form. Peptide text beside a SMILES is read from it. * marks the point of attachment. Palmitoyl = CCCCCCCCCCCCCCCC(=O)*; Dap = NC[C@H](N)C(=O)O; AEEA = NCCOCCOCC(=O)O

The test system of this assay is LM8 osteosarcoma cells. Nature of the assay: Orthotopic mouse model of lung metastasis using osteosarcoma LM8 cells with amputation (FIG. 11). Type of assay: in vivo, mice. As to conditions: 0.3 mg/kg SC with amputation on Day 7; Day 34. The protocol:
FIGS. 11A-11C. […] Error bars indicate standard error of the mean. […] Also illustrated in this diagram are the corresponding treatment schedules for SEQ ID NO: 31 and amputation. From tumor implantation, the SEQ ID NO: 31 treated group was dosed SC (0.3 mg/kg/0.1 μmol/kg in buffer) on Days 4-8, 11-15, 18-22, and 25-26. On Day 7 post-inoculation, all mice underwent amputation to remove the primary tumor. In place of treatment, the amputated control group also received buffer on the same days that SEQ ID NO: 31 was administered. Mice were sacrificed on Day 34, and lung tissues were harvested. FIGS. 11B and 11C) Lung tissues were soaked in 4% paraformaldehyde, paraffin-embedded, and sections were stained with hematoxylin and eosin (H&E). Lung images were observed using high-resolution microscopy (Keyence, Tokyo, Japan, #BZ-X700), and lung metastasis was evaluated by the direct count of present metastatic lung nodules. […]
Animal care and treatment: Male […] mice (7 weeks-old) were purchased from Kyudo (Saga, Japan) and maintained under a 12-hour light/12-hour dark cycle with free access to water and standard mouse diet (MF diet; Oriental Yeast Co., Ltd., Tokyo, Japan). […] Lung images were observed using the high-resolution microscopy (Keyence, Tokyo, Japan, #BZ-X700), and lung metastasis was evaluated by the direct count of present metastatic nodules (FIG. 11C). […]

`CCCCCCCCCCCCCCCC(=O)NCCOCCOCC(=O)NCCOCCOCC(=O)NCCOCCOCC(=O)N[C@@H](CN)C(=O)N[C@@H](CN)C(=O)NCC(=O)N[C@@H](CC(C)C)C(=O)N[C@@H](CO)C(=O)N[C@@H](CCCCN)C(=O)NCC(=O)N[C@H]1CSSC[C@@H](C(=O)O)NC(=O)CNC(=O)[C@H](CC(C)C)NC(=O)CNC(=O)[C@H](CO)NC(=O)[C@H](CCC(N)=O)NC(=O)[C@H](CO)NC(=O)CNC(=O)[C@H]([C@@H](C)CC)NC(=O)[C@H](CCCNC(=N)N)NC(=O)[C@H](CC(=O)O)NC(=O)[C@H](CC(C)C)NC(=O)[C@H](CCCCN)NC(=O)[C@H](CC(C)C)NC(=O)CNC(=O)[C@H](Cc2ccccc2)NC1=O` [SEQ ID NO: 31] ({Palmitoyl-AEEA-AEEA-AEEA}-[Dap][Dap]GLSKGCFGLKLDRIGSQSGLGC-OH; disulfide 8-24; C-terminus assumed): the “Metastatic nodules present in the lung vs amputation alone” value is “significant reduction”.
